Results from the OligoGym collection.
HELM strings list units from the 5' end as sugar, base in round brackets, then linkage (d deoxyribose, r ribose, m 2'-O-methyl, p phosphodiester). Strings are as the collection lists them; they lack the last nucleoside at the 3' end of the tested compound. [moe] = 2'-O-(2-methoxyethyl) (MOE); [sp] = phosphorothioate linkage; [m5C] = 5-methylcytosine

Biological target: UBE3A-ATS
Test: mouse, dose not given
Settings: ASO

Substance | 3 h FOB score [score 0-7]
RNA1{[moe](G)[sp].[moe](A)p.[moe](G)p.[moe]([m5C])p.[moe](T)[sp].d(A)[sp].d(T)[sp].d([m5C])[sp].d(T)[sp].d(G)[sp].d(T)[sp].d(A)[sp].d([m5C])[sp].[moe](A)p.[moe](A)p.[moe](A)[sp].[moe](A)}$$$$ (last 3' nucleoside missing) | 6
RNA1{[moe]([m5C])[sp].[moe](T)p.[moe](T)p.[moe](T)p.[moe](A)p.d(G)[sp].d(T)[sp].d(A)[sp].d(T)[sp].d(G)[sp].d(T)[sp].d([m5C])[sp].d(G)[sp].d(A)[sp].d(G)[sp].[moe](A)p.[moe](A)p.[moe]([m5C])[sp].[moe](T)}$$$$ (last 3' nucleoside missing) | 5
RNA1{[moe]([m5C])[sp].[moe](T)p.[moe](T)p.[moe]([m5C])p.[moe](A)p.d(A)[sp].d([m5C])[sp].d(T)[sp].d(A)[sp].d(A)[sp].d([m5C])[sp].d(A)[sp].d(G)[sp].d(T)[sp].d(A)[sp].[moe](T)p.[moe]([m5C])p.[moe](T)[sp].[moe](T)}$$$$ (last 3' nucleoside missing) | 0
RNA1{[moe](T)[sp].[moe](A)p.[moe](G)p.[moe](A)p.[moe](T)p.d(T)[sp].d(G)[sp].d(G)[sp].d(G)[sp].d([m5C])[sp].d(T)[sp].d(T)[sp].d(T)[sp].d(A)[sp].d(G)[sp].[moe](A)p.[moe](G)p.[moe](G)[sp].[moe](T)}$$$$ (last 3' nucleoside missing) | 5
RNA1{[moe](A)[sp].[moe](A)p.[moe](A)p.[moe](A)p.[moe](T)p.d(A)[sp].d([m5C])[sp].d([m5C])[sp].d(A)[sp].d([m5C])[sp].d(A)[sp].d(A)[sp].d(A)[sp].d(G)[sp].d(A)[sp].[moe](T)p.[moe](A)p.[moe](G)[sp].[moe](G)}$$$$ (last 3' nucleoside missing) | 2.5
RNA1{[moe](T)[sp].[moe]([m5C])p.[moe](A)p.[moe](G)p.[moe]([m5C])p.d(A)[sp].d([m5C])[sp].d(T)[sp].d(T)[sp].d(A)[sp].d(G)[sp].d(G)[sp].d(T)[sp].d(A)[sp].d(G)[sp].[moe](T)p.[moe](T)p.[moe]([m5C])[sp].[moe](A)}$$$$ (last 3' nucleoside missing) | 5
RNA1{[moe]([m5C])[sp].[moe](A)p.[moe](T)p.[moe]([m5C])p.[moe](A)p.d(T)[sp].d(G)[sp].d(A)[sp].d(T)[sp].d([m5C])[sp].d(T)[sp].d(T)[sp].d(G)[sp].d(G)[sp].d(T)[sp].[moe](A)p.[moe](A)p.[moe](G)[sp].[moe](G)}$$$$ (last 3' nucleoside missing) | 3
RNA1{[moe](T)[sp].[moe](G)p.[moe](A)p.[moe](G)p.[moe]([m5C])p.[moe](T)p.d(A)[sp].d(T)[sp].d([m5C])[sp].d(T)[sp].d(G)[sp].d(T)[sp].d(A)[sp].d([m5C])[sp].d(A)[sp].d(A)[sp].[moe](A)p.[moe](A)[sp].[moe](T)}$$$$ (last 3' nucleoside missing) | 5.3
RNA1{[moe](T)[sp].[moe](A)p.[moe](A)p.[moe](A)p.[moe](A)p.d(T)[sp].d([m5C])[sp].d([m5C])[sp].d(A)[sp].d(T)[sp].d(T)[sp].d(T)[sp].d(G)[sp].d(T)[sp].d([m5C])[sp].[moe]([m5C])p.[moe](A)p.[moe](G)[sp].[moe](T)}$$$$ (last 3' nucleoside missing) | 3.3
RNA1{[moe](G)[sp].[moe](T)p.[moe](G)p.[moe](T)p.[moe](G)p.d(T)[sp].d(T)[sp].d(T)[sp].d(T)[sp].d(T)[sp].d([m5C])[sp].d([m5C])[sp].d(A)[sp].d(T)[sp].d(T)[sp].[moe](T)p.[moe](T)p.[moe](T)[sp].[moe]([m5C])}$$$$ (last 3' nucleoside missing) | 0
RNA1{[moe](T)[sp].[moe](A)p.[moe](T)p.[moe](T)p.[moe](G)p.d(G)[sp].d(T)[sp].d([m5C])[sp].d(A)[sp].d(T)[sp].d([m5C])[sp].d(T)[sp].d([m5C])[sp].d(G)[sp].d(G)[sp].[moe](G)p.[moe](T)p.[moe](A)[sp].[moe](T)}$$$$ (last 3' nucleoside missing) | 3.3
RNA1{[moe](A)[sp].[moe](G)p.[moe](T)p.[moe](G)p.[moe]([m5C])p.d([m5C])[sp].d(T)[sp].d(T)[sp].d(T)[sp].d([m5C])[sp].d(T)[sp].d(A)[sp].d(T)[sp].d(T)[sp].d(T)[sp].[moe]([m5C])p.[moe](A)p.[moe](G)[sp].[moe](A)}$$$$ (last 3' nucleoside missing) | 0
RNA1{[moe](T)[sp].[moe]([m5C])p.[moe](T)p.[moe](G)p.[moe](G)p.d(A)[sp].d(A)[sp].d(T)[sp].d([m5C])[sp].d(T)[sp].d(T)[sp].d(G)[sp].d(T)[sp].d(A)[sp].d(G)[sp].[moe](A)p.[moe](G)p.[moe](G)[sp].[moe](A)}$$$$ (last 3' nucleoside missing) | 2.7
RNA1{[moe](T)[sp].[moe]([m5C])p.[moe](T)p.[moe]([m5C])p.[moe](A)p.d(T)[sp].d(G)[sp].d(T)[sp].d(G)[sp].d(T)[sp].d(T)[sp].d(T)[sp].d(T)[sp].d(T)[sp].d(G)[sp].[moe](T)p.[moe](T)p.[moe]([m5C])[sp].[moe]([m5C])}$$$$ (last 3' nucleoside missing) | 5
RNA1{[moe]([m5C])[sp].[moe](A)p.[moe](G)p.[moe](T)p.[moe](T)p.[moe](A)p.d(G)[sp].d(G)[sp].d(T)[sp].d(T)[sp].d(A)[sp].d(G)[sp].d(T)[sp].d(G)[sp].d([m5C])[sp].d(A)[sp].[moe]([m5C])p.[moe](A)[sp].[moe](G)}$$$$ (last 3' nucleoside missing) | 5.2
RNA1{[moe](T)[sp].[moe](G)p.[moe]([m5C])p.[moe](T)p.[moe]([m5C])p.d(A)[sp].d(G)[sp].d(T)[sp].d(T)[sp].d(A)[sp].d(G)[sp].d(G)[sp].d(T)[sp].d(T)[sp].d(A)[sp].[moe](G)p.[moe](T)p.[moe](G)[sp].[moe]([m5C])}$$$$ (last 3' nucleoside missing) | 4.3
RNA1{[moe]([m5C])[sp].[moe](T)p.[moe](G)p.[moe]([m5C])p.[moe](T)p.d(T)[sp].d([m5C])[sp].d(A)[sp].d([m5C])[sp].d([m5C])[sp].d(A)[sp].d(T)[sp].d(T)[sp].d(T)[sp].d(T)[sp].[moe](G)p.[moe](A)p.[moe]([m5C])[sp].[moe]([m5C])}$$$$ (last 3' nucleoside missing) | 1.3
RNA1{[moe]([m5C])[sp].[moe](T)p.[moe](G)p.[moe](A)p.d(T)[sp].d([m5C])[sp].d(A)[sp].d([m5C])[sp].d(A)[sp].d(T)[sp].d(T)[sp].d(A)[sp].d([m5C])[sp].d([m5C])[sp].[moe]([m5C])p.[moe](A)p.[moe](T)p.[moe]([m5C])[sp].[moe]([m5C])}$$$$ (last 3' nucleoside missing) | 0
RNA1{[moe](G)[sp].[moe](G)p.[moe](G)p.[moe](T)p.[moe](A)p.d(G)[sp].d(A)[sp].d(A)[sp].d(G)[sp].d(A)[sp].d([m5C])[sp].d(T)[sp].d(A)[sp].d(G)[sp].d([m5C])[sp].[moe](A)p.[moe](T)p.[moe](A)[sp].[moe]([m5C])}$$$$ (last 3' nucleoside missing) | 5.8
RNA1{[moe](T)[sp].[moe](G)p.[moe](A)p.[moe](G)p.d([m5C])[sp].d(T)[sp].d(A)[sp].d(T)[sp].d([m5C])[sp].d(T)[sp].d(G)[sp].d(T)[sp].d(A)[sp].d([m5C])[sp].[moe](A)p.[moe](A)p.[moe](A)p.[moe](A)[sp].[moe](T)}$$$$ (last 3' nucleoside missing) | 5.5
RNA1{[moe](G)[sp].[moe](G)p.[moe](T)p.[moe]([m5C])p.[moe](A)p.[moe](T)[sp].d([m5C])[sp].d(T)[sp].d([m5C])[sp].d(G)[sp].d(G)[sp].d(G)[sp].d(T)[sp].d(A)[sp].[moe](T)p.[moe](A)[sp].[moe](T)}$$$$ (last 3' nucleoside missing) | 6
RNA1{[moe](G)[sp].[moe](T)p.[moe]([m5C])p.[moe](A)p.[moe](T)p.[moe]([m5C])p.d(T)[sp].d([m5C])[sp].d(G)[sp].d(G)[sp].d(G)[sp].d(T)[sp].d(A)[sp].d(T)[sp].d(A)[sp].d(T)[sp].[moe](A)p.[moe](A)[sp].[moe](A)}$$$$ (last 3' nucleoside missing) | 4
RNA1{[moe](T)[sp].[moe](T)p.[moe](G)p.[moe]([m5C])p.[moe](T)p.[moe](G)p.d(A)[sp].d(T)[sp].d([m5C])[sp].d(A)[sp].d([m5C])[sp].d(A)[sp].d(T)[sp].d(T)[sp].d(A)[sp].d([m5C])[sp].[moe]([m5C])p.[moe]([m5C])[sp].[moe](A)}$$$$ (last 3' nucleoside missing) | 1
RNA1{[moe]([m5C])[sp].[moe](T)p.[moe](A)p.[moe](A)p.[moe](A)p.d(A)[sp].d(T)[sp].d([m5C])[sp].d([m5C])[sp].d(A)[sp].d(T)[sp].d(T)[sp].d(T)[sp].d(G)[sp].d(T)[sp].[moe]([m5C])p.[moe]([m5C])p.[moe](A)[sp].[moe](G)}$$$$ (last 3' nucleoside missing) | 3.3
RNA1{[moe](A)[sp].[moe](G)p.[moe]([m5C])p.[moe]([m5C])[sp].d(A)[sp].d(G)[sp].d(G)[sp].d(T)[sp].d(G)[sp].d(T)[sp].d([m5C])[sp].d(T)[sp].[moe](T)p.[moe](A)p.[moe](T)p.[moe](A)[sp].[moe](T)}$$$$ (last 3' nucleoside missing) | 6
RNA1{[moe](G)[sp].[moe]([m5C])p.[moe]([m5C])p.[moe](T)p.[moe](T)p.d(T)[sp].d([m5C])[sp].d(T)[sp].d(A)[sp].d(T)[sp].d(T)[sp].d(T)[sp].d([m5C])[sp].d(A)[sp].d(G)[sp].[moe](A)p.[moe]([m5C])p.[moe]([m5C])[sp].[moe](G)}$$$$ (last 3' nucleoside missing) | 1
RNA1{[moe](A)[sp].[moe](G)p.[moe](G)p.[moe](A)p.[moe](T)p.d(T)[sp].d(A)[sp].d(A)[sp].d(A)[sp].d(A)[sp].d(G)[sp].d(T)[sp].d(T)[sp].d(G)[sp].d(A)[sp].[moe](A)p.[moe](A)p.[moe]([m5C])[sp].[moe](A)}$$$$ (last 3' nucleoside missing) | 4
